Data: the supplement of paper PMC11208160

Experiment: recombinant barcode read abundance after kanamycin selection (control-corrected) (log10(CPM+1)); higher = more efficient recombination; sequences stand for … in AGTGCAGAGAAAATCGGCCAGTTTTCTCTGCCTGCAGTCCGCATGCCGT…AGATTTATGCAGCGGACTGCCTTTCTCCCAAAGTGATAAACCGGACAGTATCATGGACCGGTTTTCCCGGTAATCCGTATTTGCAAGGTTGGTTTCACT; site = the 11-nt target
Outline: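 A promoter, a target, a barcode and the first 104 bridge RNA bases under J23119 made up each oligo. Oligos were Gibson-cloned into a vector bearing the other 73 bp and a T7-inducible recombinase, then co-electroporated into E. coli with a donor plasmid and plated in duplicate on chloramphenicol/ampicillin LB agar (control) or chloramphenicol/ampicillin/kanamycin with 0.1 mM IPTG. Recombination efficiency is the averaged, control-corrected counts per million of recombinant-junction barcodes. Reported values are log10(CPM+1).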
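Further: IS621 recombinase and bridge RNA in Escherichia coli cells.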

Sequence	recombinant barcode read abundance (log10)
GTAACCTCTTGGGTTCTAACCTGTTGCCA (site GTAACCTCTAG)	0.904
GTAACCTCTTGGGTTCTAACCTGTTGCCA (site GTAACCTCTCG)	0
GTAACCTCTTGGGTTCTAACCTGTTGCCA (site GTAACCTCTGG)	0.0508
GTAACCTCTTGGGTTCTAACCTGTTGCCA (site GTAACCTCTTG)	0.983
GTAACCTCTTGGGTTCTAACCTGTTGCCG (site GTAACCTCTAG)	0.861
GTAACCTCTTGGGTTCTAACCTGTTGCCG (site GTAACCTCTCG)	1.48
GTAACCTCTTGGGTTCTAACCTGTTGCCG (site GTAACCTCTGG)	0.0296
GTAACCTCTTGGGTTCTAACCTGTTGCCG (site GTAACCTCTTG)	0.0357
GTAAGATCTTGGGTTCTAACCTGTTGCAC (site AGGCCCGCTCC)	0.0896
GTAAGATCTTGGGTTCTAACCTGTTGCAC (site GTAAGATCTGT)	2.12
GTAAGTACTTGGGTTCTAACCTGTTGCTT (site GTAAGAACTAA)	0.169
GTAAGTACTTGGGTTCTAACCTGTTGCTT (site GTAAGCACTAA)	0.233
GTAAGTACTTGGGTTCTAACCTGTTGCTT (site GTAAGGACTAA)	0.159
GTAAGTACTTGGGTTCTAACCTGTTGCTT (site GTAAGTACTAA)	0.221
GTAAGTCCTTGGGTTCTAACCTGTTGCGA (site GTAAGTCCTTC)	2.14
GTAAGTCCTTGGGTTCTAACCTGTTGCGA (site GTGAGTCCTCC)	0.0113
GTAAGTGCTTGGGTTCTAACCTGTTGCCT (site GTAAATGCTAG)	0.0588
GTAAGTGCTTGGGTTCTAACCTGTTGCCT (site GTAACTGCTAG)	0.0692
GTAAGTGCTTGGGTTCTAACCTGTTGCCT (site GTAAGTGCTAG)	1.28
GTAAGTGCTTGGGTTCTAACCTGTTGCCT (site GTAATTGCTAG)	0.187
GTAATGACTTGGGTTCTAACCTGTTGCCT (site GAAATGACTAG)	0.403
GTAATGACTTGGGTTCTAACCTGTTGCCT (site GCAATGACTAG)	0.194

Sequence	recombinant barcode read abundance (log10)
GTAATGACTTGGGTTCTAACCTGTTGCCT (site GGAATGACTAG)	0.105
GTAATGACTTGGGTTCTAACCTGTTGCCT (site GTAATGACTAG)	1.6
GTAATGTCTTGGGTTCTAACCTGTTGCCT (site GAAATGTCTAG)	0.284
GTAATGTCTTGGGTTCTAACCTGTTGCCT (site GCAATGTCTAG)	0.289
GTAATGTCTTGGGTTCTAACCTGTTGCCT (site GGAATGTCTAG)	0.112
GTAATGTCTTGGGTTCTAACCTGTTGCCT (site GTAATGTCTAG)	2.04
GTACAATCTTGGGTTCTAACCTGTTGCCT (site ATACAATCTAG)	0.947
GTACAATCTTGGGTTCTAACCTGTTGCCT (site CTACAATCTAG)	0.339
GTACAATCTTGGGTTCTAACCTGTTGCCT (site GTACAATCTAG)	1.43
GTACAATCTTGGGTTCTAACCTGTTGCCT (site TTACAATCTAG)	0.371
GTACCTACTTGGGTTCTAACCTGTTGCTA (site CGACCTACTTA)	0.0562
GTACCTACTTGGGTTCTAACCTGTTGCTA (site GTACCTACTTA)	1.33
GTACGAGCTTGGGTTCTAACCTGTTGCCG (site GTACGAGCTCG)	0.848
GTACGAGCTTGGGTTCTAACCTGTTGCCG (site GTGTGAGCTCG)	0.38
GTACGTCCTTGGGTTCTAACCTGTTGCAT (site GTACGTCCTAA)	0.133
GTACGTCCTTGGGTTCTAACCTGTTGCAT (site GTACGTCCTAC)	1.01
GTACGTCCTTGGGTTCTAACCTGTTGCAT (site GTACGTCCTAG)	0.52
GTACGTCCTTGGGTTCTAACCTGTTGCAT (site GTACGTCCTAT)	1
GTACGTCCTTGGGTTCTAACCTGTTGCCT (site GTACGTCCTAA)	0.112
GTACGTCCTTGGGTTCTAACCTGTTGCCT (site GTACGTCCTAC)	0.352
GTACGTCCTTGGGTTCTAACCTGTTGCCT (site GTACGTCCTAG)	0.482
GTACGTCCTTGGGTTCTAACCTGTTGCCT (site GTACGTCCTAT)	0.0848

Sequence	recombinant barcode read abundance (log10)
GTACTACCTTGGGTTCTAACCTGTTGCCG (site ACGGAGACTAT)	0.198
GTACTACCTTGGGTTCTAACCTGTTGCCG (site GTACTACCTCG)	1.14
GTACTCTCTTGGGTTCTAACCTGTTGCAG (site CCGTCAACTAG)	0.0592
GTACTCTCTTGGGTTCTAACCTGTTGCAG (site GTACTCTCTCT)	1.33
GTAGACCCTTGGGTTCTAACCTGTTGCTG (site GTAGACCCTAC)	1.29
GTAGACCCTTGGGTTCTAACCTGTTGCTG (site GTAGACCCTCA)	2.94
GTAGAGTCTTGGGTTCTAACCTGTTGCTT (site GTAGAGTCTAA)	2.41
GTAGAGTCTTGGGTTCTAACCTGTTGCTT (site GTGGAGTCTAG)	0.685
GTAGCCACTTGGGTTCTAACCTGTTGCCT (site GTAGCCACTAG)	2.37
GTAGCCACTTGGGTTCTAACCTGTTGCCT (site GTCGCCACTAG)	0.449
GTAGCCACTTGGGTTCTAACCTGTTGCCT (site GTGGCCACTAG)	0.791
GTAGCCACTTGGGTTCTAACCTGTTGCCT (site GTTGCCACTAG)	1.06
GTAGGCGCTTGGGTTCTAACCTGTTGCCT (site GTAGGCGCTAG)	1.96
GTAGGCGCTTGGGTTCTAACCTGTTGCCT (site GTCGGCGCTAG)	0.33
GTAGGCGCTTGGGTTCTAACCTGTTGCCT (site GTGGGCGCTAG)	0.441
GTAGGCGCTTGGGTTCTAACCTGTTGCCT (site GTTGGCGCTAG)	0.0331
GTAGGGACTTGGGTTCTAACCTGTTGCCT (site GAAGGGACTAG)	1.34
GTAGGGACTTGGGTTCTAACCTGTTGCCT (site GCAGGGACTAG)	0.806
GTAGGGACTTGGGTTCTAACCTGTTGCCT (site GGAGGGACTAG)	0.439
GTAGGGACTTGGGTTCTAACCTGTTGCCT (site GTAGGGACTAG)	1.97
GTAGGGTCTTGGGTTCTAACCTGTTGCCT (site GTAGGGTCTAG)	2.41
GTAGGGTCTTGGGTTCTAACCTGTTGCCT (site TTGGGGTCTAG)	0.324

Sequence	recombinant barcode read abundance (log10)
GTATACCCTTGGGTTCTAACCTGTTGCAT (site GTATACCCTAT)	2.34
GTATACCCTTGGGTTCTAACCTGTTGCAT (site GTATACCCTTG)	0.224
GTATCCACTTGGGTTCTAACCTGTTGCTA (site GTATCCACTTA)	1.47
GTATCCACTTGGGTTCTAACCTGTTGCTA (site GTATGCCCTTA)	0.0561
GTATCCTCTTGGGTTCTAACCTGTTGCAT (site GTATCCTCTAT)	2.28
GTATCCTCTTGGGTTCTAACCTGTTGCAT (site GTATGCTCTAC)	0.0984
GTATCTCCTTGGGTTCTAACCTGTTGCGG (site GTATCTCCTCC)	0.0723
GTATCTCCTTGGGTTCTAACCTGTTGCGG (site GTCTCACCTCC)	0.0668
GTATCTCCTTGGGTTCTAACCTGTTGCTT (site GTATCTCCTAA)	0.321
GTATCTCCTTGGGTTCTAACCTGTTGCTT (site GTATTTCCTAA)	0.136
GTATGTGCTTGGGTTCTAACCTGTTGCAA (site CTATGTGCTTC)	0.0841
GTATGTGCTTGGGTTCTAACCTGTTGCAA (site GTATGTGCTTT)	0.769
GTCAAACCTTGGGTTCTAACCTGTTGCTT (site GACAAACCTAG)	0.274
GTCAAACCTTGGGTTCTAACCTGTTGCTT (site GTCAAACCTAA)	0.46
GTCAAAGCTTGGGTTCTAACCTGTTGCCA (site GTCAAAGCTTG)	0.0767
GTCAAAGCTTGGGTTCTAACCTGTTGCCA (site GTCACAGCTAG)	0.407
GTCAACCCTTGGGTTCTAACCTGTTGCTG (site GTCAAACCTCA)	0.045
GTCAACCCTTGGGTTCTAACCTGTTGCTG (site GTCAACCCTCA)	2.49
GTCAACCCTTGGGTTCTAACCTGTTGCTG (site GTCAAGCCTCA)	0.32
GTCAACCCTTGGGTTCTAACCTGTTGCTG (site GTCAATCCTCA)	0.145
